Consider 16 compounds from patent EP0743938B1, “SUBSTITUTED SPIRO COMPOUNDS FOR THE TREATMENT OF INFLAMMATION” (G.D. SEARLE & CO., priority 1994, dated 1995).

Molecules are shown by their SMILES.

In assay [1] the test system is Male Sprague-Dawley rats. In words: Rat Carrageenan Foot Pad Edema Test. It counts as in vivo. Conditions: po, 3 h, rats dosed orally, 10mg/kg body weight, one hour before carrageenan, foot volume three hours after carrageenan, read-out: RAT PAW EDEMA % Inhibition @ 10mg/kg body weight. (In general: Carrageenan injected into the paw causes an acute inflammation.)
Experimental: Male Sprague-Dawley rats were selected in each group so that the average body weight was as close as possible. Rats were fasted with free access to water for over sixteen hours prior to the test. The rats were dosed orally (1 mL) with compounds suspended in vehicle containing 0.5% methylcellulose and .025% surfactant, or with vehicle alone. One hour later a subplantar injection of 0.1 mL of 1% solution of carrageenan/sterile 0.9% saline was administered and the volume of the injected foot was measured with a displacement plethysmometer connected to a pressure transducer with a digital indicator. Three hours after the injection of the carrageenan, the volume of the foot was again measured.
For assay [2], the system named is Male Sprague-Dawley rats. In words: Rat Carrageenan-induced Analgesia Test. Conditions: po, 3 h, read-out: ANALGESIA % Inhibition @ 10mg/kg body weight, rats dosed orally, hyperalgesic foot withdrawal, thermal stimulation three hours after carrageenan. It counts as in vivo.
Another assay has as its target COX-1 (Homo sapiens, UniProt P23219). The note with it: read-out: COX I ID50 µM.

Sequence of COX-1 (P23219 24-599): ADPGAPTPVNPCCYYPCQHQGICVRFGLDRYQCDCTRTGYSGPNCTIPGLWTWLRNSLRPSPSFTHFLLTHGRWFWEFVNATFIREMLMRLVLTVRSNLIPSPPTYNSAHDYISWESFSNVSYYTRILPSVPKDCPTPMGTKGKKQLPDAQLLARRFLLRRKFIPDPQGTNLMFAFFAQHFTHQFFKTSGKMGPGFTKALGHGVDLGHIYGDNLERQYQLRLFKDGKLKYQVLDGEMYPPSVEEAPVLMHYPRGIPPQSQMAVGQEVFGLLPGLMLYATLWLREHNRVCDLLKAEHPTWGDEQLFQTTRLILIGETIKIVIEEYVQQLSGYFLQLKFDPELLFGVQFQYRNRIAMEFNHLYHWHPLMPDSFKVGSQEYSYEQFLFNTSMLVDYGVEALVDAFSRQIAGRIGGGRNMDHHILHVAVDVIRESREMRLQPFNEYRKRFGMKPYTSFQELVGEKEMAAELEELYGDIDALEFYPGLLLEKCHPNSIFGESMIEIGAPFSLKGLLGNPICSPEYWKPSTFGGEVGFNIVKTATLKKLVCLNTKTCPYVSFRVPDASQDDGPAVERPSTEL

Turning to `NS(=O)(=O)c1ccc(C2=C(c3ccc(C(F)(F)F)cc3)CC3(CC3)C2)cc1` [Example 25, 4-[6-(4-Trifluoromethylphenyl)spiro[2.4]hept-5-en-5-yl]benzenesulfonamide], the inhibition in vivo at 10 mg/kg with Male Sprague-Dawley rats [1] was found to be 34%; with Male Sprague-Dawley rats [2] it was 22%.
Take `CS(=O)(=O)c1ccc(C2=C(c3ccc(F)c(Cl)c3)CC3(CC3)C2)cc1` [Example 22, 5-(3-Chloro-4-fluorophenyl)-6-[4-(methylsulfonyl)phenyl]spiro[2.4]hept-5-ene]: the inhibition in vivo at 10 mg/kg stood at 21% in the assay with Male Sprague-Dawley rats [1] and 10% in the assay on Male Sprague-Dawley rats [2]. Also, the IC50 at COX-1 is 6 µM.
As for `CS(=O)(=O)c1ccc(C2=C(c3ccc(C(F)(F)F)cc3)CC3(CC3)C2)cc1` [Example 19, 6-[4-(Methylsulfonyl)phenyl)-5-(4-trifluoromethylphenyl)spiro[2.4]hept-5-ene], the inhibition in vivo at 10 mg/kg with Male Sprague-Dawley rats [1] is 11%; in the assay on Male Sprague-Dawley rats [2], 9%.
For the compound `COc1ccc(C2=C(c3ccc(S(C)(=O)=O)cc3)CC3(CC3)C2)cc1Br` [Example 16, 5-(3-Bromo-4-methoxyphenyl)-6-[4-(methylsulfonyl)phenyl]spiro[2.4]hept-5-ene], the inhibition in vivo at 10 mg/kg with Male Sprague-Dawley rats [1] was 6%.
Still for that read-out and setting: for `CS(=O)(=O)c1ccc(C2=C(c3ccc(F)cc3)CC3(CCC3)C2)cc1` [Example 3, 6-(4-Fluorophenyl)-7-[4-(methylsulfonyl)phenyl]spiro[3.4]oct-6-ene] the value was 24%.
In the case of `CS(=O)(=O)c1ccc(C2=C(c3ccc(F)cc3)CC3(CC3)C2)cc1` [Example 1, 5-(4-Fluorophenyl)-6-[4-(methylsulfonyl)phenyl]spiro[2.4]hept-5-ene], the inhibition in vivo at 10 mg/kg in the assay on Male Sprague-Dawley rats [1] worked out at 32%; in the assay with Male Sprague-Dawley rats [2], 15%.
For the compound `NS(=O)(=O)c1ccc(C2=C(c3ccc(F)cc3)CC3(CC3)C2)cc1` [Example 2, 4-[6-(4-Fluorophenyl)spiro[2.4]hept-5-en-5-yl]benzenesulfonamide], the inhibition in vivo at 10 mg/kg stood at 57% in the assay with Male Sprague-Dawley rats [1] and 34% in the assay with Male Sprague-Dawley rats [2].
Regarding `COc1ccc(C2=C(c3ccc(S(N)(=O)=O)cc3)CC3(CC3)C2)cc1F` [Example 9, 4-[6-(3-Fluoro-4-methoxyphenyl)spiro[2.4]hept-5-en-5-yl]benzenesulfonamide], the results for the inhibition in vivo at 10 mg/kg with Male Sprague-Dawley rats [1] and with Male Sprague-Dawley rats [2] were 15% and 17%, respectively.
Consider `COc1ccc(C2=C(c3ccc(S(C)(=O)=O)cc3)CC3(CC3)C2)cc1F` [Example 8, 5-(3-Fluoro-4-methoxyphenyl)-6-[4-(methylsulfonyl)phenyl]spiro[2.4]hept-5-ene], for which the values for the inhibition in vivo at 10 mg/kg with Male Sprague-Dawley rats [1] and in the assay with Male Sprague-Dawley rats [2] were 15% and 8%, respectively.
For the compound `COc1ccc(C2=C(c3ccc(S(C)(=O)=O)cc3)CC3(CC3)C2)cc1Cl` [Example 6, 5-(3-Chloro-4-methoxyphenyl)-6-[4-(methylsulfonyl)phenyl)spiro[2.4]hept-5-ene], the inhibition in vivo at 10 mg/kg in the assay on Male Sprague-Dawley rats [1] worked out at 21%; in the assay on Male Sprague-Dawley rats [2], 7%.
Take `NS(=O)(=O)c1ccc(C2=C(c3ccc(Cl)c(Cl)c3)CC3(CC3)C2)cc1` [Example 29, 4-[6-(3,4-Dichlorophenyl)spiro[2.4]hept-5-en-5-yl]benzenesulfonamide]: the values for the inhibition in vivo at 10 mg/kg with Male Sprague-Dawley rats [1] and with Male Sprague-Dawley rats [2] were 24% and 29%, respectively.
For `CS(=O)(=O)c1ccc(C2=C(c3ccc(OC(F)(F)F)cc3)CC3(CC3)C2)cc1` [Example 14, 6-[4-(Methylsulfonyl)phenyl]-5-(4-trifluoromethoxyphenyl)spiro[2.4]hept-5-ene], the inhibition in vivo at 10 mg/kg in the assay on Male Sprague-Dawley rats [1] is 18%.
`NS(=O)(=O)c1ccc(C2=C(c3ccc(F)cc3)CC3(CCC3)C2)cc1` [Example 4, 4-[7-(4-Fluorophenyl)spiro[3.4]oct-6-en-6-yl]benzenesulfonamide]: in the assay on Male Sprague-Dawley rats [1], the inhibition in vivo at 10 mg/kg was 17%.
For the compound `CS(=O)(=O)c1ccc(C2=C(c3ccc(Cl)c(Cl)c3)CC3(CC3)C2)cc1` [Example 27, 5-(3,4-Dichlorophenyl)-6-[4-(methylsulfonyl)phenyl]spiro[2.4]hept-5-ene], the inhibition in vivo at 10 mg/kg with Male Sprague-Dawley rats [1] is 15%.
Regarding `COc1ccc(C2=C(c3ccc(S(N)(=O)=O)cc3)CC3(CC3)C2)cc1Cl` [Example 7, 4-[6-(3-Chloro-4-methoxyphenyl)spiro[2.4]hept-5-en-5-yl]benzenesulfonamide], the inhibition in vivo at 10 mg/kg with Male Sprague-Dawley rats [1] is 20%; with Male Sprague-Dawley rats [2], 18%.
In the case of `COc1c(Cl)cc(C2=C(c3ccc(S(C)(=O)=O)cc3)CC3(CC3)C2)cc1Cl` [Example 20, 5-(3,5-Dichloro-4-methoxyphenyl)-6-[4-(methylsulfonyl)phenyl]spiro[2.4]hept-5-ene], the inhibition in vivo at 10 mg/kg with Male Sprague-Dawley rats [1] stood at 24%; with Male Sprague-Dawley rats [2] it was 28%.
